Source: publication PMC4351682, “Formononetin inhibits enterovirus 71 replication by regulating COX- 2/PGE2 expression” (Virology Journal, 2015)

Tests used:
[1] = test system: EV71 VP1 protein; test: Immunofluorescence assay of EV71 VP1 protein in SK-N-SH cells; assay type: cell-based, enterovirus 71; conditions: EV71 SHZH98 160 pfu/well, 24 h treatment
Text: Figure 2 The antiviral effect of formononetin and pirodavir against EV71 in SK-N-SH cells. (A) Formononetin and pirodavir reduced the expression of EV71 VP1 protein in SK-N-SH cells by western blot assay. (B) Formononetin and pirodavir reduced the expression of EV71 VP1 protein in SK-N-SH cells by immunofluorescence assay. Cells were examined using a fluorescence microscopy (×100). (C) Formononetin and pirodavir reduced the expression of EV71 VP1 RNA by one-step qRT-PCR assay. *P < 0.001 ^# P < 0.05.
SK-N-SH cells grown on glass coverslips (Thermo) were infected with EV71 (SHZH98) of 160 pfu/well for 2 h. Then, various concentrations of formononetin were supplemented for incubation of another 24 h. After incubation, the culture medium was removed and the cells were washed and fixed. The cells were permeabilized in 0.5% Triton X-100 at room temperature for 15 min and blocked in PBS containing 1% BSA for 60 min at room temperature. Cells were then incubated with an anti-EV71 VP1 antibody (Abnova) at a dilution of 1: 500 for 2 h at room temperature. After washing three times with PBS, the samples were reacted with Alexa Fluor 488-labeled goat anti-mouse secondary antibody (Beyotime Institute of Biotechnology, China) for 1 h at room temperature. After washing with PBS, images were taken using a fluorescence microscope (Olympus, IX71).

[2] = test system: EV71; test: Antiviral activity against EV71, comparison of pirodavir and pleconaril (data not shown); assay type: cell-based, enterovirus 71
[3] = test system: SK-N-SH cells; test: Cytotoxicity assay (MTS) in SK-N-SH cells; assay type: cell-based; conditions: 3 days
Protocol: Cytotoxic effect of formononetin on Vero or SK-N-SH cells was assayed by MTS (promega) assay. Briefly, cells (3 × 10^4 cells/well) were seeded into 96-well culture plates and were incubated overnight. Then, the medium was removed and different concentrations of formononetin were applied in triplicate. After 3 days’ incubation, the cytotoxicity of formononetin was determined by MTS assay. The TC50 was defined as the concentration that inhibits 50% cellular growth in comparison with the controls and the TC0 was defined as the maximal non-toxicity dose.

[4] = test system: EV71 strain H; test: CPE inhibition assay, EV71 strain H in Vero cells; assay type: cell-based, enterovirus 71; conditions: Enterovirus A
Protocol: The anti-EV71 activity of formononetin was assayed by CPE inhibition method. Briefly, cells (3 × 10^4 cells/well) were plated into 96-well culture plates for incubation of 24 h. The medium was then removed and cells were infected with EV71 of 80 pfu/well. Then, various concentrations of formononetin were supplemented for incubation of another 48 h. The IC50 defined as the minimal concentration of inhibitor required to inhibit 50% of CPE was determined by Reed & Muench method. The selectivity index (SI) was calculated as the ratio of TC50/IC50 [19].

[5] = test system: CVB3 (strain Nancy); test: CPE inhibition assay for anti-CVBs, CVB3 in Vero cells; assay type: cell-based, coxsackievirus B3; conditions: Enterovirus B, CVB3, 100 TCID50, Vero cells
Protocol: The anti-virus activity of formononetin on CVBs was also assayed by CPE method. Briefly, cells (3 × 10^4 cells/well) were plated into 96-well culture plates for incubation of 24 h. The medium was removed and cells were infected with 100 TCID50 of CVB2, CVB6 or CVB3. Then, various concentrations of formononetin were supplemented for incubation of another 48 h. The IC50 was determined by Reed and Muench method. The SI was calculated as the ratio of TC50/IC50 [19].

| SMILES | Expression of EV71 VP1 protein (immunofluorescence assay) [1] | Antiviral activity against EV71 compared with pleconaril [2] | TC0 (maximal non-toxicity dose) [3] [µmol/L] | TC50 (50% toxicity concentration) [3] [µM] | TC0 (maximal non-toxicity dose) ([3]; listed as formononetin) [µmol/L] | TC50 (50% toxicity concentration) ([3]; listed as formononetin) [µM] | IC50 [4] [µM] | IC50 [5] [µM] |
| --- | --- | --- | --- | --- | --- | --- | --- | --- |
| CCOC(=O)c1ccc(OCCC2CCN(c3ccc(C)nn3)CC2)cc1 [Pirodavir, reference compound] | reduced | better than pleconaril | – | – | – | – | – | – |
| COc1ccc(-c2coc3cc(O)ccc3c2=O)cc1 [Formononetin] | – | – | 55.92 ± 0 | 198.80 ± 6.02 | 55.92 | 198.80 | 11.1 ± 9.23 | 2.57 ± 0.87 |
